Test results published in publication PMC3574584 (Journal of medicinal chemistry, 2013).
“Also recorded” adds a separate entry of the source.

System: Raw264.7 cells expressing mPTPB
Experiment: Akt phosphorylation by Western blotting
Format: cell-based, mouse
Conditions: mPTPB expressing Raw264.7 macrophages, IFN-γ 200 U/ml; 6c at 240 nM

## O=C(O)c1cc2c(C#Cc3cccc(C(F)(F)F)c3)c(-c3ccccc3)oc2cc1O [Compound 4g, 6-hydroxy-2-phenyl-3-((3-(trifluoromethyl)phenyl)ethynyl)benzofuran-5-carboxylic acid]
  Akt activity (phospho-Akt): normalized; also recorded: blocks

## O=C(O)c1cc2c(CCc3ccc(OC(F)(F)F)cc3)c(-c3ccccc3)oc2cc1O [Compound 6c, 6-hydroxy-2-phenyl-3-(4-(trifluoromethoxy)phenethyl)benzofuran-5-carboxylic acid]
  Akt activity (phospho-Akt): unable to reverse
